Patent US5434136A, “Treatment of motility disorders with a GNRH analog” (priority 1992, dated 1995)

Assays:
[1] = test system: functional bowel disease (GMD, IIHVN, Roux-en-Y Syndrome); assay: Treatment of five patients with leuprolide acetate: symptoms; format: in vivo, human
Source text: Patients: Four of the five patients tested were women with functional bowel disease: two with gastrointestinal motor dysfunction (GMD), and two with idiopathic intestinal hollow visceral myopathy/neuropathy (IIHVN). The fifth patient had Roux-en-Y Syndrome. All patients had severe, incapacitating symptoms of abdominal pain, nausea, and intermittent vomiting. All had made frequent visits to emergency rooms, had seen many physicians, and undergone multiple tests and surgical procedures, and were unable to maintain their jobs or quality of life. They had been treated with many different drugs, including experimental drugs by protocol. They had difficulty in maintaining body weight, because their symptoms were worsened by eating. The symptoms of the two patients with GMD were abdominal pain located in the right upper quadrant and epigastrium, daily nausea, and intermittent vomiting exacerbated by eating and by the luteal phase of the menstrual cycle. The two patients with IIHVN had abdominal pain, nausea, and intermittent vomiting, and also had urinary tract involvement consisting of pain and a decrease in urination. The fifth patient had Roux-en-Y syndrome (defined as epigastric-to-right-upper-quadrant pain, nausea, and vomiting increased by eating) after surgical construction of a gastro-jejunal Roux-en-Y anastomosis. The mean duration of these symptoms was eight years (Table 1). All subjects had undergone extensive blood testing, several upper gastrointestinal x-ray series, barium enemas, esophagogastroduodenoscopy, endoscopic retrograde cholangiopancreatography, gastric emptying tests with radiolabeled meal, ultrasound of the abdomen, computerized axial tomography of the abdomen, and many other tests. The results of all tests were normal, except for prolonged gastric emptying in the patient with the Roux-en-Y Syndrome. Because of their intractable clinical problem, these patients were included in the test protocol with leuprolide acetate. Protocol: The symptoms of each patient were first assessed, and their tests evaluated. Each patient kept a daily symptom diary. Leuprolide acetate was obtained by prescription as Lupron (TAP pharmaceuticals, Abbott Labs, North Chicago, Ill.). One multi-use vial of Lupron comprised of […] Leuprolide Acetate. A daily dose of 0.5 mg ([…]) was self-administered by subcutaneous injection, for a period of three months. Each patient was examined at 0, 1 and 3 months of treatment. After the third month, leuprolide was continued as previously, and estrogen (0.625 mg orally) and calcium (1000 mg orally) were also administered. At the end of the sixth month, a two week withdrawal period from leuprolide acetate ensued. During this period a 10 mg oral dose of progesterone was given to pre-menopausal patients, to assess recurrence of symptoms and to induce menses. Post-menopausal women were not treated with progesterone during the two week withdrawal period. This procedure was then continued for an additional six months, with drug withdrawal and progesterone given every three months to induce a menstrual cycle. Serum estradiol, progesterone, FSH, and LH were quantitated by radioimmunoassay prior to the initiation of leuprolide treatment, and at three months post treatment initiation.

[2] = test system: migrating motor complexes, jejunum; assay: Leuprolide acetate in ovariectomized female rats: migrating motor complexes; format: in vivo, ovariectomized female Wistar rats; settings: for Migrating Motor Complexes, L-Fasted / Migrating Motor Complexes, L-Fed: ovariectomized
Description: Eleven female Wistar rats weighing between 175 and 250 g were each implanted with four bipolar Ag/AgCL electrodes (the preparation of which is described in: Mathias, Am. J. Physiology, 249:[…]-[…], 1981). The electrodes were sewn 5 cm from the Ligament of Trietz and 5 cm apart, onto the jejunal serosa. The number of migrating myoelectric complexes was recorded using a R-612 Dynograph (Sensor-Medics, Anaheim, Calif.). Rats were fasted for 36 hours prior to recording and feeding (no food, liberal water), and were housed in special cages to remove feces. After 36 hours of fasting, Migrating Motor Complexes (MMC) were recorded at a sensitivity of 0.2 mV/cm, 2.5 mm/sec paper speed, and a Time Constant of 1 for a duration of 2 to 4 hours. Immediately following the fasted recording session, the rats were fed 2 biscuits of Purina rat chow with simultaneous recording during feeding and continued for 4 hours. Female Wistar rats were ovariectomized and permitted to recover ten days. Bipolar Ag/AgCl electrodes were then implanted as described for example 4. Control MMC readings in the fasted and fed states were recorded prior to treatment with leuprolide acetate (Controls) as described in Example 4. Treatment with leuprolide acetate followed using doses in the range of 2 to 250 μg/100 g body weight. Fasted and fed recordings were obtained as described for Example 4.

[3] = Patient 4 (IIHVN), 0.5 mg daily s.c.
[4] = Patient 5 (Roux-en-Y), 0.5 mg daily s.c.

CCNC(=O)[C@@H]1CCCN1C(=O)[C@H](CCCNC(=N)N)NC(=O)[C@H](CC(C)C)NC(=O)[C@@H](CC(C)C)NC(=O)[C@H](Cc1ccc(O)cc1)NC(=O)[C@H](CO)NC(=O)[C@H](Cc1c[nH]c2ccccc12)NC(=O)[C@H](Cc1c[nH]cn1)NC(=O)[C@@H]1CCC(=O)N1 [Leuprolide acetate, leuprolide acetate]
Constipation: after leuprolide acetate ([1]; Patient 1, 0.5 mg daily s.c.): Daily formed stools | Intermittent vomiting: after leuprolide acetate ([1]; Patient 1, 0.5 mg daily s.c.): Abolished | Nausea, daily: after leuprolide acetate ([1]; Patient 1, 0.5 mg daily s.c.): Decreased considerably | Pain, RUQ, epigastrium, BLQ: after leuprolide acetate ([1]; Patient 1, 0.5 mg daily s.c.): Abolished | Constipation, intermittent: after leuprolide acetate ([1]; Patient 2, 0.5 mg daily s.c.): Daily formed stools | Epigastric to RUQ pain: after leuprolide acetate ([1]; Patient 2, 0.5 mg daily s.c.): Abolished | Nausea, daily: after leuprolide acetate ([1]; Patient 2, 0.5 mg daily s.c.): Abolished | Bilateral lower quadrant pain: after leuprolide acetate ([1]; Patient 3 (IIHVN)): Abolished | Bowel and bladder function after therapy ([1]; Patient 3 (IIHVN)): normal bowel and bladder function | Epigastric to RUQ pain: after leuprolide acetate ([1]; Patient 3 (IIHVN)): Decreased considerably | Nausea and vomiting after therapy ([1]; Patient 3 (IIHVN)): subsided | Nausea, daily: after leuprolide acetate ([1]; Patient 3 (IIHVN)): Abolished | Obstipation: after leuprolide acetate ([1]; Patient 3 (IIHVN)): Daily formed stools | Pain on urination: after leuprolide acetate ([1]; Patient 3 (IIHVN)): Abolished | Remaining abdominal pain under therapy ([1]; Patient 3 (IIHVN)): mild and intermittent abdominal pain | Overall response ([1]; Patient 3 (IIHVN), total abdominal hysterectomy and bilateral salpingo-oophorectomy): responded dramatically | Overall outcome ([1]; Patient 4 (IIHVN)): symptom-free | Constipation after ovulation: after leuprolide acetate [1, 3]: Daily formed stools | Deep boring pain in lower abdomen and rectum: after leuprolide acetate [1, 3]: Abolished | Urinary difficulty after ovulation: after leuprolide acetate [1, 3]: normal urination | Urination frequency after leuprolide acetate [1, 3]: 4 to 6 day⁻¹ | Overall outcome ([1]; Patient 5 (Roux-en-Y)): symptom-free | Diarrhea: after leuprolide acetate [1, 4]: Daily formed stools | Epigastric to RUQ pain: after leuprolide acetate [1, 4]: Abolished | Intermittent vomiting: after leuprolide acetate [1, 4]: Abolished | Nausea, daily: after leuprolide acetate [1, 4]: Abolished | Worsened by eating: after leuprolide acetate [1, 4]: Abolished | Body weight gained ([1]; Patient 5 (Roux-en-Y), from 96 to 131 pounds): 35 pounds | Symptoms after leuprolide treatment was stopped and a progesterone challenge given ([1]; all subjects of Example 1, two week withdrawal): recurrent symptoms within three to five days | Debilitating symptoms of patients with Motility Disorders (conclusion of Example 1) ([1]; human, in vivo): successfully reduces or abolishes | Overall outcome after treatment ([1]; patients with GMD (Patients 1 and 2)): symptom-free | Dose required to overcome the reduction of MMC/hour in fed rats ([2]; ovariectomized female rats): 100 ug/100 g body weight | Migrating Motor Complexes, L-Fasted ([2]; 2 μg/100 g body weight, control 3.86 + 0.14, mean + SEM): 4.40 + 0.16 MMC/hour | Migrating Motor Complexes, L-Fed ([2]; 2 μg/100 g body weight, control 0): 0 MMC/hour | Migrating Motor Complexes, L-Fasted ([2]; 20 μg/100 g body weight, control 5.17 + 0.31, mean + SEM): 5.40 + 0.15 MMC/hour | Migrating Motor Complexes, L-Fed ([2]; 20 μg/100 g body weight, control 0): 0 MMC/hour | Migrating Motor Complexes, L-Fasted ([2]; 40 μg/100 g body weight, control 4.50 + 0.22, mean + SEM): 5.23 + 0.41 MMC/hour | Migrating Motor Complexes, L-Fed ([2]; 40 μg/100 g body weight, control 0.88 + 0.58): 0 MMC/hour | Migrating Motor Complexes, L-Fasted ([2]; 100 μg/100 g body weight, control 4.00 + 0.17, mean + SEM): 5.00 + 0.41 MMC/hour | Migrating Motor Complexes, L-Fed ([2]; 100 μg/100 g body weight, control 0, mean + SEM): 4.50 + 0.34 MMC/hour | Migrating Motor Complexes, L-Fasted ([2]; 250 μg/100 g body weight, control 4.50 + 0.22, mean + SEM): 4.50 + 0.29 MMC/hour | Migrating Motor Complexes, L-Fed ([2]; 250 μg/100 g body weight, control 0.88 + 0.58, mean + SEM): 5.00 + 0.58 MMC/hour
